The test concerns NHACs. The test is described as follows: calcium flux assay. The test is classed as cell-based, human. The settings on record: Homo sapiens; for Emax: read-out: (A) % Efficacy. A digest of the protocol:
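Normal human articular chondrocytes plated at 2000 cells/well and loaded 24 h later with Calcium 5 dye in HBSS/HEPES with 5 mM probenecid for 1 h at room temperature. Test compound added at indicated dose; fluorescence (ex 470–495/em 515–575 nm) recorded on FLIPR before and after addition.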
In general terms: Calcium assays in cells follow changes in intracellular calcium, usually with a dye or a luminescent sensor.

In general, EC50 refers to the midpoint of the concentration-response curve. Consider `Cc1cc([C@H]2[C@H]3O[C@H](C[C@H]3F)[C@@H]2C(=O)Nc2ccn(C)n2)ccn1` [Example 101, (1R,2R,3S,4R,5R)-5-fluoro-N-(1-methyl-1H-pyrazol-3-yl)-3-(2-methylpyridin-4-yl)-7-oxabicyclo[2.2.1]heptane-2-carboxamide], for which the EC50 turned out to be 29 µM and the Emax came out at 62%.

On to `Nc1ncc([C@@H]2[C@@H](C(=O)Nc3ccc(Cl)c(Cl)c3)[C@@H]3O[C@H]2C[C@H]3F)cn1` [Example 114, (1S,2R,3S,4S,6R)-3-(2-aminopyrimidin-5-yl)-N-(3,4-dichlorophenyl)-6-fluoro-7-oxabicyclo[2.2.1]heptane-2-carboxamide], for which the EC50 came out at 30 µM and the Emax amounted to 127%.

As for `Cc1cc([C@H]2[C@H]3O[C@H]([C@@H]4C[C@@H]43)[C@@H]2C(=O)Nc2ccc(Cl)c(C#N)c2)ccn1` [Example 66, (1S,2S,4R,5R,6R,7S)—N-(4-chloro-3-cyanophenyl)-7-(2-methylpyridin-4-yl)-8-oxatricyclo[3.2.1.0^2,4]octane-6-carboxamide], the EC50 came to 20 µM and the Emax is 179%.

As to `Cc1cc([C@H]2[C@@H]3C[C@@H](O)C(O3)[C@H]2C(=O)Nc2cccc(C(F)(F)F)c2)ccn1` (stereo in doubt) [Example 9, (1R,2S,3S,4S,6R)-6-hydroxy-3-(2-methylpyridin-4-yl)-N-[3-(trifluoromethyl)phenyl]-7-oxabicyclo[2.2.1]heptane-2-carboxamide], the concentration giving a half-maximal response (EC50) is over 50 µM and the Emax was found to be 0%.

As to `O=C(Nc1cccc(C(F)(F)F)c1)[C@H]1[C@@H]2O[C@@H](C[C@H]2O)[C@@H]1c1ccncc1` [Example 89, (1S,2R,3S,4S,6R)-6-hydroxy-3-(pyridin-4-yl)-N-(3-(trifluoromethyl)phenyl)-7-oxabicyclo[2.2.1]heptane-2-carboxamide], the EC50 was over 50 µM and the Emax was determined as 0%.

For the compound `O=C(Nc1cnc(Cl)c(Cl)c1)[C@H]1[C@@H]2O[C@@H]([C@H]3C[C@H]32)[C@@H]1c1ccncc1` [Example 136, (1S,2S,4R,5R,6R,7S)—N-(5,6-dichloropyridin-3-yl)-7-(pyridin-4-yl)-8-oxatricyclo[3.2.1.0^2,4]octane-6-carboxamide], the EC50 turned out to be 17 µM and the Emax turned out to be 254%.

Consider `Cc1ncc([C@H]2[C@H]3O[C@H]([C@@H]4C[C@@H]43)[C@H]2C(=O)Nc2ccc(Cl)c(Cl)c2)cn1` [Example 42, (1S,2S,4R,5R,6S,7S)—N-(3,4-dichlorophenyl)-7-(2-methylpyrimidin-5-yl)-8-oxatricyclo[3.2.1.0^2,4]octane-6-carboxamide], for which the concentration giving a half-maximal response (EC50) turned out to be 18 µM and the Emax stood at 57%.

Consider `O=C(Nc1ccc(Cl)c(Cl)c1)[C@@H]1[C@@H]2O[C@@H]([C@H]3C[C@H]32)[C@@H]1c1cnc(F)nc1` [Example 36, (1S,2S,4R,5R,6S,7S)—N-(3,4-dichlorophenyl)-7-(2-fluoropyrimidin-5-yl)-8-oxatricyclo[3.2.1.0^2,4]octane-6-carboxamide], for which the EC50 was found to be 8.6 µM and the Emax was determined as 124%.

For the compound `O=C(Nc1ccc(Cl)c(Cl)c1)[C@H]1[C@@H](c2ccncc2)[C@H]2O[C@@H]1C[C@@H]2O` (racemic) [Example 47, rac-(1R,2S,3S,4R,5S)—N-(3,4-dichlorophenyl)-5-hydroxy-3-(pyridin-4-yl)-7-oxabicyclo[2.2.1]heptane-2-carboxamide], the EC50 came out at 7.8 µM and the Emax worked out at 38%.

`O=C(Nc1cnc(Cl)c(Cl)c1)[C@H]1[C@@H](c2ccncc2)[C@H]2O[C@@H]1C[C@@H]2O` (single isomer, unassigned) [Example 10a]: the EC50 is over 50 µM and the Emax stood at 55%.

For the compound `O=C(Nc1ccc(Cl)c(Cl)c1)[C@H]1[C@H](c2ccnc(F)c2)[C@@H]2O[C@H]1C[C@H]2O` [Example 142b, (1S,2S,3R,4S,5R)-N-(3,4-dichlorophenyl)-3-(2-fluoropyridin-4-yl)-5-hydroxy-7-oxabicyclo[2.2.1]heptane-2-carboxamide], the EC50 turned out to be 0.79 µM and the Emax turned out to be 54%.

Turning to `COc1ccc(NC(=O)[C@@H]2[C@@H]3O[C@@H]([C@H]4C[C@H]43)[C@@H]2c2ccncc2)cn1` [Example 33, (1S,2S,4R,5R,6S,7S)—N-(6-methoxypyridin-3-yl)-7-(pyridin-4-yl)-8-oxatricyclo[3.2.1.0^2,4]octane-6-carboxamide], the EC50 worked out at 4.6 µM and the Emax was 49%.

`Cc1cc([C@@H]2[C@@H](C(=O)Nc3ccc(Cl)c(Cl)c3)[C@H]3C[C@@](C)(O)[C@@H]2O3)ccn1` [Example 178, (1R,2R,3S,4R,5R)—N-(3,4-dichlorophenyl)-5-hydroxy-5-methyl-3-(2-methylpyridin-4-yl)-7-oxabicyclo[2.2.1]heptane-2-carboxamide]: the EC50 was over 50 µM and the Emax was found to be 1%.

Consider `O=C(Nc1ccc(Cl)c(Cl)c1)[C@@H]1[C@H]2O[C@H]([C@@H]3C[C@@H]32)[C@H]1c1ccnc(F)c1F` (single isomer, unassigned) [Example 122b], for which the EC50 is 17 µM and the Emax worked out at 217%.

Regarding `Cc1ccc([C@H]2[C@H]3O[C@H](C[C@@H]3F)[C@H]2C(=O)Nc2ccc(Cl)c(Cl)c2)cn1` [Example 21, (1R,2S,3S,4R,5S)-N-(3,4-dichlorophenyl)-5-fluoro-3-(6-methylpyridin-3-yl)-7-oxabicyclo[2.2.1]heptane-2-carboxamide], the EC50 turned out to be 27 µM and the Emax was found to be 159%.

In the case of `O=C(Nc1ccc(Cl)c(Cl)c1)[C@@H]1[C@@H]2O[C@@H]([C@H]3C[C@H]32)[C@@H]1c1ccnc(F)c1F` (single isomer, unassigned) [Example 29], the EC50 was over 50 µM and the Emax amounted to 6%.

With `COc1ccc(NC(=O)[C@H]2[C@@H]3O[C@@H]([C@H]4C[C@H]43)[C@@H]2c2ccncc2)cn1` [Example 125, (1S,2S,4R,5R,6R,7S)—N-(6-methoxypyridin-3-yl)-7-(pyridin-4-yl)-8-oxatricyclo[3.2.1.0^2,4]octane-6-carboxamide], the EC50 came out at 17 µM and the Emax came to 162%.

Regarding `Cc1cc([C@H]2[C@H]3O[C@H](C[C@@H]3F)[C@@H]2C(=O)Nc2cnc(Cl)c(Cl)c2)ccn1` [Example 109, (1R,2R,3S,4R,5S)—N-(5,6-dichloropyridin-3-yl)-5-fluoro-3-(2-methylpyridin-4-yl)-7-oxabicyclo[2.2.1]heptane-2-carboxamide], the EC50 turned out to be 28 µM and the Emax was determined as 164%.

Regarding `O=C(Nc1cnc(Cl)c(Cl)c1)[C@@H]1[C@@H]2O[C@@H]([C@H]3C[C@H]32)[C@@H]1c1ccnc(F)c1F` [Example 32, (1S,2S,4R,5R,6S,7S)—N-(5,6-dichloropyridin-3-yl)-7-(2,3-difluoropyridin-4-yl)-8-oxatricyclo[3.2.1.0^2,4]octane-6-carboxamide], the EC50 was determined as 13 µM and the Emax was 143%.

Consider `COc1cc([C@H]2[C@H]3O[C@H](C[C@@H]3O)[C@H]2C(=O)Nc2ccc(Cl)c(Cl)c2)ccn1` (single isomer, unassigned) [Example 49a], for which the EC50 amounted to 0.84 µM and the Emax came to 53%.

For the origin of these results see US12209096B2, “Compounds and compositions for inducing chondrogenesis” (NOVARTIS AG, priority 2017, dated 2025).
